Results as given in BindingDB's records for doi:10.7270/Q22J698B (NMMLSC, 2010).

Target: Cell division control protein 42 homolog (Homo sapiens, UniProt P60953)
Test: activated mutant Cdc42 GTP-binding inhibitors, dose response, biochemical, multiplex bead flow cytometry, Bodipy-FL-GTP (AID 1333)

Chain of Cell division control protein 42 homolog (P60953 whole entry): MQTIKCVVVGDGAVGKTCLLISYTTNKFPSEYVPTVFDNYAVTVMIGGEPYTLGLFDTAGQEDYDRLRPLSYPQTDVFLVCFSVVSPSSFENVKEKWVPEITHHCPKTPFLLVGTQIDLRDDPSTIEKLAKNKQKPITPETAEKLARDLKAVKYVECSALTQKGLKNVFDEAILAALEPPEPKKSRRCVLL

- EC50: 92 nM
Compound: CC1(C)Cc2c(sc(NC(=S)NC(=O)c3ccccc3)c2C(=O)O)CO1 [2-(benzoylcarbamothioylamino)-5,5-dimethyl-4,7-dihydrothieno[2,3-c]pyran-3-carboxylic acid]
